Data from ChEMBL document CHEMBL5465560, “Selectivity Literature for EUbOPEN Chemogenomic Library” (2024).
Blank lines part the entries; values can stand above or below the compound they belong to.

Key:
[1] = biological target: Histone-lysine N-methyltransferase KMT5C (Homo sapiens) (UniProt Q86Y97); test: Selectivity interaction (Methyltransferase screen (radiometric assays, panel of 8 PRMTs, 21 protein lysine methyltransferases, 3 DNA methyltransferases, and one RNA methyltransferase)) EUB0000272b SUV420H2
[2] = biological target: T1, Protein kinase C epsilon type (Homo sapiens) (UniProt Q02156); test: Selectivity interaction (Kinase panel (Invitrogen)) EUB0000639a PRKCE; details: at 200 nM
T1 sequence (whole entry): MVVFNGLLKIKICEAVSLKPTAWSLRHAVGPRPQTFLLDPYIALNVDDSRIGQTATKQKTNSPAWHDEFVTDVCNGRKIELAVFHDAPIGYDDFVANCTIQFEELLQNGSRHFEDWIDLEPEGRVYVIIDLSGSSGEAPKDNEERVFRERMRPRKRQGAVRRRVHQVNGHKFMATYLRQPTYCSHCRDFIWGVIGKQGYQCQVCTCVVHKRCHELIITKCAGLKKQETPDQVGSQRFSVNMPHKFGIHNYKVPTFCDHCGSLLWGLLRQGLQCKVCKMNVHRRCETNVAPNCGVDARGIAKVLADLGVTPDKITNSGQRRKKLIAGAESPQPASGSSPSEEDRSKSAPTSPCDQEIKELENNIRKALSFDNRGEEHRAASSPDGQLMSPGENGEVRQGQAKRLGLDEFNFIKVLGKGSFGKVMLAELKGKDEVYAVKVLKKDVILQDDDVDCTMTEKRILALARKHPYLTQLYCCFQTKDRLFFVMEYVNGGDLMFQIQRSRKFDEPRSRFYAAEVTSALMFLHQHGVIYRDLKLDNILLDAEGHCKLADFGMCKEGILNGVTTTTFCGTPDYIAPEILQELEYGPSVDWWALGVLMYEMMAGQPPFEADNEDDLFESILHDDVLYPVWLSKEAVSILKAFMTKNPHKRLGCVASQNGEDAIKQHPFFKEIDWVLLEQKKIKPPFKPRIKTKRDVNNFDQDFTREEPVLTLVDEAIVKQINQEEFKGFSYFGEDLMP

[3] = biological target: Protein arginine N-methyltransferase 5 (Homo sapiens, UniProt O14744); test: Selectivity interaction (Methyltransferase screen (radiometric assays, panel of 8 PRMTs, 21 protein lysine methyltransferases, 3 DNA methyltransferases, and one RNA methyltransferase)) EUB0000271b PRMT5
[4] = biological target: T2, Activin receptor type-1B (Homo sapiens) (UniProt P36896); test: Selectivity interaction (KinomeScan (DiscoverX)) EUB0001049a ACVR1B; details: at 1 µM
T2 sequence (whole entry): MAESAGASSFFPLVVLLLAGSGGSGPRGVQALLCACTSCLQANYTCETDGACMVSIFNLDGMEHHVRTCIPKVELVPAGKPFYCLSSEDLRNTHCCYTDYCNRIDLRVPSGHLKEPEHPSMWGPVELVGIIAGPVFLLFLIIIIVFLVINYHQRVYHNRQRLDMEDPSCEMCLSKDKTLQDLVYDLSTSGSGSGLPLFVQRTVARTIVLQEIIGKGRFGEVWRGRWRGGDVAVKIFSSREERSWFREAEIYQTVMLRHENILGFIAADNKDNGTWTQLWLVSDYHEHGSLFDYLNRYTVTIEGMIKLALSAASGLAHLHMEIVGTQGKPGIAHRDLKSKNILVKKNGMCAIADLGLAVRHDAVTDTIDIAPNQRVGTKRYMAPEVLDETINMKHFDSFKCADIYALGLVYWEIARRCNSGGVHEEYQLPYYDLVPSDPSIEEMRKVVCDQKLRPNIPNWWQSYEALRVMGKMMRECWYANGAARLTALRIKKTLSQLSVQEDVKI

[5] = biological target: Tyrosine-protein kinase Fyn (Homo sapiens) (UniProt P06241); test: Selectivity interaction (Millipore kinase profiler) EUB0000124b FYN; details: at 10 µM
[6] = biological target: T3, Interleukin-1 receptor-associated kinase 3 (Homo sapiens) (UniProt Q9Y616); test: Selectivity interaction (Ambit KINOMEscan and KiNATiv profiling in Jurkat cells) EUB0000090b IRAK3; format: cell-based; details: at 1 µM
T3 sequence (whole entry): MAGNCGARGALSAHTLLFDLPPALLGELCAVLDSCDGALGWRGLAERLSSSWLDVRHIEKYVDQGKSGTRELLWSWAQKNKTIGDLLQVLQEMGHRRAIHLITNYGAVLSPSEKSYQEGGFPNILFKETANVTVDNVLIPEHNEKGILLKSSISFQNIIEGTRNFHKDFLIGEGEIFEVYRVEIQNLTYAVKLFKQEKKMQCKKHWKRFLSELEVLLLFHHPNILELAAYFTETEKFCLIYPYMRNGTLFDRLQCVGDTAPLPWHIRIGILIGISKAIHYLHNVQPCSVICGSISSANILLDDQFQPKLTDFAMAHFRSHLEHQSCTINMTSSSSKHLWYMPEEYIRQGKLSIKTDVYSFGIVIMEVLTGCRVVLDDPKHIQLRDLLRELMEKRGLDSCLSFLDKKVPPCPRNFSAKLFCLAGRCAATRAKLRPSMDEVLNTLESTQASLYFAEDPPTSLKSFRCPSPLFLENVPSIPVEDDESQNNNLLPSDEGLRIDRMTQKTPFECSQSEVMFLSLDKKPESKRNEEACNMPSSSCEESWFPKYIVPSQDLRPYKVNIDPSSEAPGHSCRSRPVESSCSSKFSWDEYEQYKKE

[7] = biological target: Cyclin-dependent kinase 5 (Homo sapiens, UniProt Q00535); test: Selectivity interaction (Ambit KINOMEscan and KiNATiv profiling in Jurkat cells) EUB0000090b CDK5; format: cell-based; details: at 1 µM
[8] = biological target: Serine/threonine-protein kinase 32B (Homo sapiens) (UniProt Q9NY57); test: Selectivity interaction (Ambit KINOMEscan and KiNATiv profiling in Jurkat cells) EUB0000090b STK32B; format: cell-based; details: at 1 µM
[9] = biological target: Maternal embryonic leucine zipper kinase (Homo sapiens) (UniProt Q14680); test: Selectivity interaction (Ambit KINOMEscan and KiNATiv profiling in Jurkat cells) EUB0000090b MELK; format: cell-based; details: at 1 µM
[10] = biological target: T4, Serine/threonine-protein kinase 17A (Homo sapiens) (UniProt Q9UEE5); test: Selectivity interaction (KinomeScan (DiscoverX)) EUB0000655a STK17A; details: at 10 µM
T4 sequence (whole entry): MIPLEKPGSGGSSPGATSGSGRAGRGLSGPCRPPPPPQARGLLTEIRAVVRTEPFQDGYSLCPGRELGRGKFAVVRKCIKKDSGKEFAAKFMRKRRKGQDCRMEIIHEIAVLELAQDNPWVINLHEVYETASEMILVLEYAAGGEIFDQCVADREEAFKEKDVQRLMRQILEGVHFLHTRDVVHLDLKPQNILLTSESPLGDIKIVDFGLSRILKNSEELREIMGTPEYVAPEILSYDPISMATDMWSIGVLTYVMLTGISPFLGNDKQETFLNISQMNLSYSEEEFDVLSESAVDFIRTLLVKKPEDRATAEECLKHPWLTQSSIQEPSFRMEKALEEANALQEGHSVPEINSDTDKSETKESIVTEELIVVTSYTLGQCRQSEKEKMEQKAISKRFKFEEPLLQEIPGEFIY

Sequence of Protein arginine N-methyltransferase 5 (O14744 whole entry): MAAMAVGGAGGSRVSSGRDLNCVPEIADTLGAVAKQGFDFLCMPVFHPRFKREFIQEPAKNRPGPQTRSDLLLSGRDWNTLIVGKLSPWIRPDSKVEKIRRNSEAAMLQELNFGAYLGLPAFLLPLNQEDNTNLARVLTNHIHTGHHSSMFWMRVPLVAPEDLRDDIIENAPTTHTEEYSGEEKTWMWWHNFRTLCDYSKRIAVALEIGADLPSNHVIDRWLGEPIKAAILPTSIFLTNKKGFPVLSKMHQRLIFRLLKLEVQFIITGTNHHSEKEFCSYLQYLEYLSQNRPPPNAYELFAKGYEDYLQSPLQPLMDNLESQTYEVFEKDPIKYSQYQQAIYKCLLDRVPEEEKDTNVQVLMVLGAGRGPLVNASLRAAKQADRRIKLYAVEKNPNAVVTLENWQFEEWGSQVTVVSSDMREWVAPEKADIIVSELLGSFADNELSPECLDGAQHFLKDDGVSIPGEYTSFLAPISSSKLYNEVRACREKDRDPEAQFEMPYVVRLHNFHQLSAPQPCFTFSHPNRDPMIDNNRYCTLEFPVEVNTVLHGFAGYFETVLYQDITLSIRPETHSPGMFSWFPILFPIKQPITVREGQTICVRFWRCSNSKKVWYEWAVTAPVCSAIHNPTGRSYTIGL
Sequence of Histone-lysine N-methyltransferase KMT5C (Homo sapiens) (Q86Y97 whole entry, looked up): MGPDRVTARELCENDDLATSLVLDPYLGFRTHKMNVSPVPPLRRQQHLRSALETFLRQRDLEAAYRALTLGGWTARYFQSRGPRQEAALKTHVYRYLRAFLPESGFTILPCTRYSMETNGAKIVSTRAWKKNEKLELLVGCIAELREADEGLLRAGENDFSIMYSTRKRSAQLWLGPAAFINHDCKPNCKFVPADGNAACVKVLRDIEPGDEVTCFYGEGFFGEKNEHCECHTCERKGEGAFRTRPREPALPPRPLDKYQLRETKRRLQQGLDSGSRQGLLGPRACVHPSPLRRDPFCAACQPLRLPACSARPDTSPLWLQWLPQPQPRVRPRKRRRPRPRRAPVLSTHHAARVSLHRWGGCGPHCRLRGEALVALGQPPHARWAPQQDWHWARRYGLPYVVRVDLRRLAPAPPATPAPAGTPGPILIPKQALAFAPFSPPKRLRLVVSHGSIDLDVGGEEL
Sequence of Tyrosine-protein kinase Fyn (Homo sapiens) (P06241 2-537 limits assumed): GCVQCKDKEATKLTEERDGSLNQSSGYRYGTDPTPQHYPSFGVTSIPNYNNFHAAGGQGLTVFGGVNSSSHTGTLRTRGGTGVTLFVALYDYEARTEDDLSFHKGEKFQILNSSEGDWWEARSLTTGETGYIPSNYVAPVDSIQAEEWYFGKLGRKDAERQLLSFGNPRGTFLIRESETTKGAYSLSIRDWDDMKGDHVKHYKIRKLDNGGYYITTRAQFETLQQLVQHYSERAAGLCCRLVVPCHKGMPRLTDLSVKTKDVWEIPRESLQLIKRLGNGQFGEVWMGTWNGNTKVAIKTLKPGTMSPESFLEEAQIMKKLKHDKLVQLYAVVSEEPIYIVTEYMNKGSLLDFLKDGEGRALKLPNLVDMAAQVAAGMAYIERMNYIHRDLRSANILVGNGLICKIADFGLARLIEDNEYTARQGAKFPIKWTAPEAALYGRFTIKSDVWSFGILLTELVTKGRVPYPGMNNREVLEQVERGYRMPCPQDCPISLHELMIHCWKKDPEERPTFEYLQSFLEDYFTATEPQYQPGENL
Sequence of Cyclin-dependent kinase 5 (Q00535 whole entry, looked up): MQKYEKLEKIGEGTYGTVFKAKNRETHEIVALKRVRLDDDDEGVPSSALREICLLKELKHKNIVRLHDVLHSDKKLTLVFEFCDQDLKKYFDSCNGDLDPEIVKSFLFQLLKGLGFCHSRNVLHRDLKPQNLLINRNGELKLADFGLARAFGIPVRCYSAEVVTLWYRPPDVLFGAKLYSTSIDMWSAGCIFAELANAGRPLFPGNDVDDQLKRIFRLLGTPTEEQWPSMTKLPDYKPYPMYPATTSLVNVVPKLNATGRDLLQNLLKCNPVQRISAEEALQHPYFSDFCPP
Sequence of Serine/threonine-protein kinase 32B (Homo sapiens) (Q9NY57 whole entry): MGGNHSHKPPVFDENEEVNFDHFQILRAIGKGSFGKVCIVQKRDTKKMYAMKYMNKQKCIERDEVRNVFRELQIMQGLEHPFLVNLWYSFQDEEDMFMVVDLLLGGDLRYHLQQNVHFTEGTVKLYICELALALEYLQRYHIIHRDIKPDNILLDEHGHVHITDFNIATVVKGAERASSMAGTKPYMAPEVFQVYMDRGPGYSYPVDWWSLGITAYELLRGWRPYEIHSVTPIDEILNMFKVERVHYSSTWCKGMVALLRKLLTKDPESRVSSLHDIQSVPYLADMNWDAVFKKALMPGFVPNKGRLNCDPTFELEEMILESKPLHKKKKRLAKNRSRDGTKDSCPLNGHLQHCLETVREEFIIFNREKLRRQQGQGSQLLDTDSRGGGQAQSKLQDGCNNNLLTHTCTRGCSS
Sequence of Maternal embryonic leucine zipper kinase (Homo sapiens) (Q14680 whole entry, looked up): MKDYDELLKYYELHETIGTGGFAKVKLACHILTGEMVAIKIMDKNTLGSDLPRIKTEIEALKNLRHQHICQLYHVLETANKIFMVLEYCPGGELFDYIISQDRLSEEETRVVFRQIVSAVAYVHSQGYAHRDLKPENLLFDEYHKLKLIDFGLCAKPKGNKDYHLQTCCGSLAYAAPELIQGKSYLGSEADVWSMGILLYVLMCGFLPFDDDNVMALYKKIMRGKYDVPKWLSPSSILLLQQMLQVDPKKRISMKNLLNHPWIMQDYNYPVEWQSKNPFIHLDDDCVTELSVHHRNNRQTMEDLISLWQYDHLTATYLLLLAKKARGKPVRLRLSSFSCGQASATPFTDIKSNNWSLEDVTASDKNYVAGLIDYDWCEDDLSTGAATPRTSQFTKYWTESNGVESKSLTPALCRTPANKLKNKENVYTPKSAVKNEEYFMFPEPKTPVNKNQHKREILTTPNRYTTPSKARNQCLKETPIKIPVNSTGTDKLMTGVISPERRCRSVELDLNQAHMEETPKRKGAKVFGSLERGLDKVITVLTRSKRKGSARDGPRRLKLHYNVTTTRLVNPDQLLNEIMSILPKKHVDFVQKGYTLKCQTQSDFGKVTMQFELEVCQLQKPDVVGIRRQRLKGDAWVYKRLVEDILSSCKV

% of activity ([1]; at 1 µM): 101% | % of activity ([1]; at 10 µM): 102%
SMILES: Cc1cc(C)cc([C@H]2c3cc(C)ccc3NC(=O)CN2C(=O)c2ccc(Br)s2)c1

% of inhibition [2]: -12.5%
SMILES: CC[C@@H]1[C@H](F)C(=O)N[C@@H]1COc1nccc2cc(C(N)=O)c(OC)cc12 [ZIMLOVISERTIB]

SMILES: Cc1cc(C)cc([C@@H]2c3cc(C)ccc3NC(=O)CN2C(=O)c2ccc(Br)s2)c1
% of activity ([3]; at 1 µM): 102% | % of activity ([3]; at 10 µM): 100%

SMILES: COc1cc(Nc2nc(C)cc(-c3cnn4nc(OC)ccc34)n2)cc(C(F)(F)F)c1
% of control [4]: 100%

% of control [5]: 101%
SMILES: CC(=O)Nc1cccc(-n2c(=O)n(C3CC3)c(=O)c3c(Nc4ccc(I)cc4F)n(C)c(=O)c(C)c32)c1

SMILES: CN(C)C/C=C/C(=O)Nc1ccc(C(=O)N2CCCC(Nc3ncc(Cl)c(-c4c[nH]c5ccccc45)n3)C2)cc1 (configuration not stated)
% of control [6]: 68% | % of control [7]: 89% | % of control [8]: 90% | % of control [9]: 75%

SMILES: CN(C)CCOc1ccc(-c2nc(-c3ccncc3)c(-c3ccc4c(c3)CC/C4=N\O)[nH]2)cc1
% of control [10]: 69%
